Assay results from the supplement of paper PMC11208160.
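Further: IS621 bridge recombinase in Escherichia coli cells against a fixed T5 target plasmid.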

Test: recombinant UMI read abundance after kanamycin selection (control-corrected) (log10(CPM+1)); higher = more efficient recombination; extreme values may be limits of the assay; sequences stand for … in AGTGCAGAGAAAATCGGCCAGTTTTCTCTGCCTGCAGTCCGCATGCCGTGGGACCCCTTGGGTTCTAACCTGTTGCCTAGATTTATGCAGCGGACTGCCTTTCTCCCAAAGTGATAAACCGG…AGGTTGGTTTCACT; site = the 11-nt donor
Summary of the method: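 Two replicates each of selected and unselected plating were used in this pooled Escherichia coli screen of donor and donor-binding-loop pairs for the IS621 bridge recombinase. Selection was with IPTG (0.07 mM) and kanamycin. Counts of recombinant UMIs, amplified across the donor–target junction, were converted to CPM, averaged, scaled by control-derived factors and reported as log10(CPM+1).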
In the case of “CAGAGGCCATGGACCGGTTTTCCCGGTAATCCGTATTTGCT (site CAGAGGCCTAG)”, the “recombinant UMI read abundance (log10)” value was 1.68. With “CAGAGTCCATGGACCGGTTTTCCCGGTAATCCGTATTTGCC (site CAGAGTCCTGG)” the “recombinant UMI read abundance (log10)” value was 1.8. With “CAGAGTCCATGGACCGGTTTTCCCGGTAATCCGTATTTGTT (site CAGAGTCCTAA)” the “recombinant UMI read abundance (log10)” value was 1.92. For “CAGAGTCCATGGACCGGTTTTCCCGGTAATCCGTATTTGTT (site CGGAATCCTAA)”, the “recombinant UMI read abundance (log10)” value was 0. In the case of “CAGATAACATGGACCGGTTTTCCCGGTAATCCGTATTTGGG (site CAGATAACTCC)”, the “recombinant UMI read abundance (log10)” value was 1.1. For “CAGCAACCATGGACCGGTTTTCCCGGTAATCCGTATTTGCA (site CAGCAACCTTG)”, the “recombinant UMI read abundance (log10)” value was 0. For “CAGCAATCATGGACCGGTTTTCCCGGTAATCCGTATTTGGT (site CAGCAATCTAC)”, the “recombinant UMI read abundance (log10)” value was 2.73. With “CAGCCTTCATGGACCGGTTTTCCCGGTAATCCGTATTTGGT (site AAGCCTTCTAC)” the “recombinant UMI read abundance (log10)” value was 0. For “CAGCCTTCATGGACCGGTTTTCCCGGTAATCCGTATTTGGT (site CAGCCTTCTAC)”, the “recombinant UMI read abundance (log10)” value was 0.949. In the case of “CAGCCTTCATGGACCGGTTTTCCCGGTAATCCGTATTTGGT (site GAGCCTTCTAC)”, the “recombinant UMI read abundance (log10)” value was 0.00376. For “CAGCCTTCATGGACCGGTTTTCCCGGTAATCCGTATTTGGT (site TAGCCTTCTAC)”, the “recombinant UMI read abundance (log10)” value was 0.0206. In the case of “CAGCCTTCATGGACCGGTTTTCCCGGTAATCCGTATTTGTG (site CAGCCTTCTCA)”, the “recombinant UMI read abundance (log10)” value was 0.108. With “CAGCGTGCATGGACCGGTTTTCCCGGTAATCCGTATTTGCT (site CAGCGTGCTAG)” the “recombinant UMI read abundance (log10)” value was 2.76. With “CAGCTAGCATGGACCGGTTTTCCCGGTAATCCGTATTTGAA (site AAGCTAGCTTT)” the “recombinant UMI read abundance (log10)” value was 0.0151. With “CAGCTAGCATGGACCGGTTTTCCCGGTAATCCGTATTTGAA (site CAGCTAGCTTT)” the “recombinant UMI read abundance (log10)” value was 2.54. With “CAGCTAGCATGGACCGGTTTTCCCGGTAATCCGTATTTGAA (site GAGCTAGCTTT)” the “recombinant UMI read abundance (log10)” value was 0.0499. In the case of “CAGCTAGCATGGACCGGTTTTCCCGGTAATCCGTATTTGAA (site TAGCTAGCTTT)”, the “recombinant UMI read abundance (log10)” value was 0.596. In the case of “CAGGCAACATGGACCGGTTTTCCCGGTAATCCGTATTTGTG (site CAGGCAACTCA)”, the “recombinant UMI read abundance (log10)” value was 0.912. In the case of “CAGGCGCCATGGACCGGTTTTCCCGGTAATCCGTATTTGTG (site CAAGCGCCTCA)”, the “recombinant UMI read abundance (log10)” value was 0.0213. For “CAGGCGCCATGGACCGGTTTTCCCGGTAATCCGTATTTGTG (site CACGCGCCTCA)”, the “recombinant UMI read abundance (log10)” value was 0. For “CAGGCGCCATGGACCGGTTTTCCCGGTAATCCGTATTTGTG (site CAGGCGCCTCA)”, the “recombinant UMI read abundance (log10)” value was 0.428. For “CAGGCGCCATGGACCGGTTTTCCCGGTAATCCGTATTTGTG (site CATGCGCCTCA)”, the “recombinant UMI read abundance (log10)” value was 0.0319. For “CAGGGCCCATGGACCGGTTTTCCCGGTAATCCGTATTTGCA (site CAGGGCCCTTG)”, the “recombinant UMI read abundance (log10)” value was 1.24. In the case of “CAGGGCCCATGGACCGGTTTTCCCGGTAATCCGTATTTGTT (site CAAGGCCCTAA)”, the “recombinant UMI read abundance (log10)” value was 0. In the case of “CAGGGCCCATGGACCGGTTTTCCCGGTAATCCGTATTTGTT (site CACGGCCCTAA)”, the “recombinant UMI read abundance (log10)” value was 0.025. For “CAGGGCCCATGGACCGGTTTTCCCGGTAATCCGTATTTGTT (site CAGGGCCCTAA)”, the “recombinant UMI read abundance (log10)” value was 0.381. For “CAGGGCCCATGGACCGGTTTTCCCGGTAATCCGTATTTGTT (site CATGGCCCTAA)”, the “recombinant UMI read abundance (log10)” value was 0.00426. In the case of “CAGGGCTCATGGACCGGTTTTCCCGGTAATCCGTATTTGTT (site CAGGGCTCTAA)”, the “recombinant UMI read abundance (log10)” value was 2.71. In the case of “CAGGTTCCATGGACCGGTTTTCCCGGTAATCCGTATTTGAA (site CAGGTTCCTTT)”, the “recombinant UMI read abundance (log10)” value was 1.98. In the case of “CAGGTTGCATGGACCGGTTTTCCCGGTAATCCGTATTTGGC (site CAGGTTGCTGC)”, the “recombinant UMI read abundance (log10)” value was 2.08. For “CAGTAAGCATGGACCGGTTTTCCCGGTAATCCGTATTTGTG (site CAGTAAGCTCA)”, the “recombinant UMI read abundance (log10)” value was 2.41. With “CAGTCCACATGGACCGGTTTTCCCGGTAATCCGTATTTGGG (site CAGTCAACTCC)” the “recombinant UMI read abundance (log10)” value was 0.00382. For “CAGTCCACATGGACCGGTTTTCCCGGTAATCCGTATTTGGG (site CAGTCCACTCC)”, the “recombinant UMI read abundance (log10)” value was 0.00714. In the case of “CAGTCCACATGGACCGGTTTTCCCGGTAATCCGTATTTGGG (site CAGTCGACTCC)”, the “recombinant UMI read abundance (log10)” value was 0.024. With “CAGTCCACATGGACCGGTTTTCCCGGTAATCCGTATTTGGG (site CAGTCTACTCC)” the “recombinant UMI read abundance (log10)” value was 0. With “CAGTCCGCATGGACCGGTTTTCCCGGTAATCCGTATTTGCT (site CAGTCCGCTAG)” the “recombinant UMI read abundance (log10)” value was 2.64. In the case of “CAGTCCTCATGGACCGGTTTTCCCGGTAATCCGTATTTGCC (site CAATCCTCTGG)”, the “recombinant UMI read abundance (log10)” value was 2.78. For “CAGTCCTCATGGACCGGTTTTCCCGGTAATCCGTATTTGCC (site CACTCCTCTGG)”, the “recombinant UMI read abundance (log10)” value was 2.05. In the case of “CAGTCCTCATGGACCGGTTTTCCCGGTAATCCGTATTTGCC (site CAGTCCTCTGG)”, the “recombinant UMI read abundance (log10)” value was 2.38. For “CAGTCCTCATGGACCGGTTTTCCCGGTAATCCGTATTTGCC (site CATTCCTCTGG)”, the “recombinant UMI read abundance (log10)” value was 0.879. In the case of “CAGTCGACATGGACCGGTTTTCCCGGTAATCCGTATTTGTG (site CAGTCGACTCA)”, the “recombinant UMI read abundance (log10)” value was 0.661. For “CAGTCGACATGGACCGGTTTTCCCGGTAATCCGTATTTGTG (site CAGTCGACTCC)”, the “recombinant UMI read abundance (log10)” value was 0.022. For “CAGTCGACATGGACCGGTTTTCCCGGTAATCCGTATTTGTG (site CAGTCGACTCG)”, the “recombinant UMI read abundance (log10)” value was 0.00379. In the case of “CAGTCGACATGGACCGGTTTTCCCGGTAATCCGTATTTGTG (site CAGTCGACTCT)”, the “recombinant UMI read abundance (log10)” value was 0.00896. For “CAGTCGTCATGGACCGGTTTTCCCGGTAATCCGTATTTGGG (site CAGTCGACTCC)”, the “recombinant UMI read abundance (log10)” value was 0.00913. With “CAGTCGTCATGGACCGGTTTTCCCGGTAATCCGTATTTGGG (site CAGTCGCCTCC)” the “recombinant UMI read abundance (log10)” value was 0.0207. In the case of “CAGTCGTCATGGACCGGTTTTCCCGGTAATCCGTATTTGGG (site CAGTCGGCTCC)”, the “recombinant UMI read abundance (log10)” value was 0.0122. In the case of “CAGTCGTCATGGACCGGTTTTCCCGGTAATCCGTATTTGGG (site CAGTCGTCTCC)”, the “recombinant UMI read abundance (log10)” value was 0.348. With “CAGTGCTCATGGACCGGTTTTCCCGGTAATCCGTATTTGAA (site CAATGCTCTTT)” the “recombinant UMI read abundance (log10)” value was 1.35. In the case of “CAGTGCTCATGGACCGGTTTTCCCGGTAATCCGTATTTGAA (site CACTGCTCTTT)”, the “recombinant UMI read abundance (log10)” value was 0.28. For “CAGTGCTCATGGACCGGTTTTCCCGGTAATCCGTATTTGAA (site CAGTGCTCTTT)”, the “recombinant UMI read abundance (log10)” value was 2.48. In the case of “CAGTGCTCATGGACCGGTTTTCCCGGTAATCCGTATTTGAA (site CATTGCTCTTT)”, the “recombinant UMI read abundance (log10)” value was 0.0098. With “CAGTGGACATGGACCGGTTTTCCCGGTAATCCGTATTTGGG (site CAGTAGACTCC)” the “recombinant UMI read abundance (log10)” value was 0.368. For “CAGTGGACATGGACCGGTTTTCCCGGTAATCCGTATTTGGG (site CAGTCGACTCC)”, the “recombinant UMI read abundance (log10)” value was 0.0117. With “CAGTGGACATGGACCGGTTTTCCCGGTAATCCGTATTTGGG (site CAGTGGACTCC)” the “recombinant UMI read abundance (log10)” value was 0.0835. For “CAGTGGACATGGACCGGTTTTCCCGGTAATCCGTATTTGGG (site CAGTTGACTCC)”, the “recombinant UMI read abundance (log10)” value was 0.0125. For “CAGTTAGCATGGACCGGTTTTCCCGGTAATCCGTATTTGTG (site CAGTTAGCTCA)”, the “recombinant UMI read abundance (log10)” value was 2.09. With “CAGTTAGCATGGACCGGTTTTCCCGGTAATCCGTATTTGTG (site CCGTTAGCTCA)” the “recombinant UMI read abundance (log10)” value was 0.0219. For “CAGTTAGCATGGACCGGTTTTCCCGGTAATCCGTATTTGTG (site CGGTTAGCTCA)”, the “recombinant UMI read abundance (log10)” value was 0.347. For “CAGTTAGCATGGACCGGTTTTCCCGGTAATCCGTATTTGTG (site CTGTTAGCTCA)”, the “recombinant UMI read abundance (log10)” value was 0.364. In the case of “CAGTTCCCATGGACCGGTTTTCCCGGTAATCCGTATTTGCT (site CAATTCCCTAG)”, the “recombinant UMI read abundance (log10)” value was 0.806. In the case of “CAGTTCCCATGGACCGGTTTTCCCGGTAATCCGTATTTGCT (site CACTTCCCTAG)”, the “recombinant UMI read abundance (log10)” value was 0.644. For “CAGTTCCCATGGACCGGTTTTCCCGGTAATCCGTATTTGCT (site CAGTTCCCTAG)”, the “recombinant UMI read abundance (log10)” value was 0.863. With “CAGTTCCCATGGACCGGTTTTCCCGGTAATCCGTATTTGCT (site CATTTCCCTAG)” the “recombinant UMI read abundance (log10)” value was 0.433. For “CAGTTGGCATGGACCGGTTTTCCCGGTAATCCGTATTTGGA (site CAATTGGCTTC)”, the “recombinant UMI read abundance (log10)” value was 0.882. For “CAGTTGGCATGGACCGGTTTTCCCGGTAATCCGTATTTGGA (site CACTTGGCTTC)”, the “recombinant UMI read abundance (log10)” value was 0.076. With “CAGTTGGCATGGACCGGTTTTCCCGGTAATCCGTATTTGGA (site CAGTTGGCTTC)” the “recombinant UMI read abundance (log10)” value was 1.72. In the case of “CAGTTGGCATGGACCGGTTTTCCCGGTAATCCGTATTTGGA (site CATTTGGCTTC)”, the “recombinant UMI read abundance (log10)” value was 0.00616. For “CATAATACATGGACCGGTTTTCCCGGTAATCCGTATTTGGC (site CATAATACTGC)”, the “recombinant UMI read abundance (log10)” value was 1.88. With “CATAATACATGGACCGGTTTTCCCGGTAATCCGTATTTGGC (site CCTAATACTGC)” the “recombinant UMI read abundance (log10)” value was 0. In the case of “CATAATACATGGACCGGTTTTCCCGGTAATCCGTATTTGGC (site CGTAATACTGC)”, the “recombinant UMI read abundance (log10)” value was 0. With “CATAATACATGGACCGGTTTTCCCGGTAATCCGTATTTGGC (site CTTAATACTGC)” the “recombinant UMI read abundance (log10)” value was 0. For “CATAGCCCATGGACCGGTTTTCCCGGTAATCCGTATTTGAG (site CATAGCCCTCT)”, the “recombinant UMI read abundance (log10)” value was 0.0141. For “CATATTGCATGGACCGGTTTTCCCGGTAATCCGTATTTGCA (site CATATTGCTTG)”, the “recombinant UMI read abundance (log10)” value was 0. With “CATATTGCATGGACCGGTTTTCCCGGTAATCCGTATTTGTT (site CATATTGCTAA)” the “recombinant UMI read abundance (log10)” value was 1.21.
